Test system: DNA repair protein genes
Assay: DNA chip mRNA expression in yeast, DNA repair protein genes (Table 3)
Format: cell-based, Saccharomyces cerevisiae S288C
Details: incubated two hours, concentrations as in the 1st table
How it was run: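 In this screen, yeast in logarithmic growth are challenged for two hours with a toxic substance at a non-lethal inhibitory concentration. Their mRNA, converted to Cy3- or Cy5-labeled cDNA, hybridizes at 65° C. to a chip spanning every yeast gene, and expression is expressed as a ratio to untreated cells.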

## CN(C)C(=S)SSC(=S)N(C)C [(10), Tetramethylthiuram disulfide]
Yeast gene YAL015C
  The level of expressed mRNA in the presence of chemical substance/The level of expressed mRNA in the absence of chemical substance: 2.7
Yeast gene YAR007C
  The level of expressed mRNA in the presence of chemical substance/The level of expressed mRNA in the absence of chemical substance: 1.7
Yeast gene YBL019W
  The level of expressed mRNA in the presence of chemical substance/The level of expressed mRNA in the absence of chemical substance: 1.4
Yeast gene YBR073W
  The level of expressed mRNA in the presence of chemical substance/The level of expressed mRNA in the absence of chemical substance: 1.8
Yeast gene YBR272C
  The level of expressed mRNA in the presence of chemical substance/The level of expressed mRNA in the absence of chemical substance: 2.7
Yeast gene YCR014C
  The level of expressed mRNA in the presence of chemical substance/The level of expressed mRNA in the absence of chemical substance: 1.0
Yeast gene YDL017W
  The level of expressed mRNA in the presence of chemical substance/The level of expressed mRNA in the absence of chemical substance: 1.8
Yeast gene YDL059C
  The level of expressed mRNA in the presence of chemical substance/The level of expressed mRNA in the absence of chemical substance: 7.8
Yeast gene YDL200C
  The level of expressed mRNA in the presence of chemical substance/The level of expressed mRNA in the absence of chemical substance: 1.8
Yeast gene YDR054C
  The level of expressed mRNA in the presence of chemical substance/The level of expressed mRNA in the absence of chemical substance: 3.2
Yeast gene YDR369C
  The level of expressed mRNA in the presence of chemical substance/The level of expressed mRNA in the absence of chemical substance: 1.8
Yeast gene YEL019C
  The level of expressed mRNA in the presence of chemical substance/The level of expressed mRNA in the absence of chemical substance: 0.7
Yeast gene YEL037C
  The level of expressed mRNA in the presence of chemical substance/The level of expressed mRNA in the absence of chemical substance: 1.2
Yeast gene YER162C
  The level of expressed mRNA in the presence of chemical substance/The level of expressed mRNA in the absence of chemical substance: 1.6
Yeast gene YFL014W
  The level of expressed mRNA in the presence of chemical substance/The level of expressed mRNA in the absence of chemical substance: 5.8
Yeast gene YGL058W
  The level of expressed mRNA in the presence of chemical substance/The level of expressed mRNA in the absence of chemical substance: 1.8
Yeast gene YGL091C
  The level of expressed mRNA in the presence of chemical substance/The level of expressed mRNA in the absence of chemical substance: 6.0
Yeast gene YGL127C
  The level of expressed mRNA in the presence of chemical substance/The level of expressed mRNA in the absence of chemical substance: 1.5
Yeast gene YGL163C
  The level of expressed mRNA in the presence of chemical substance/The level of expressed mRNA in the absence of chemical substance: 2.3
Yeast gene YGL249W
  The level of expressed mRNA in the presence of chemical substance/The level of expressed mRNA in the absence of chemical substance: 2.4
Yeast gene YGR180C
  The level of expressed mRNA in the presence of chemical substance/The level of expressed mRNA in the absence of chemical substance: 1.5
Yeast gene YGR231C
  The level of expressed mRNA in the presence of chemical substance/The level of expressed mRNA in the absence of chemical substance: 2.3
Yeast gene YGR258C
  The level of expressed mRNA in the presence of chemical substance/The level of expressed mRNA in the absence of chemical substance: 1.5
Yeast gene YHR164C
  The level of expressed mRNA in the presence of chemical substance/The level of expressed mRNA in the absence of chemical substance: 3.1
Yeast gene YIL036W
  The level of expressed mRNA in the presence of chemical substance/The level of expressed mRNA in the absence of chemical substance: 2.7
Yeast gene YIL072W
  The level of expressed mRNA in the presence of chemical substance/The level of expressed mRNA in the absence of chemical substance: 2.1
Yeast gene YIL143C
  The level of expressed mRNA in the presence of chemical substance/The level of expressed mRNA in the absence of chemical substance: 3.5
Yeast gene YIL153W
  The level of expressed mRNA in the presence of chemical substance/The level of expressed mRNA in the absence of chemical substance: 1.1
Yeast gene YIR002C
  The level of expressed mRNA in the presence of chemical substance/The level of expressed mRNA in the absence of chemical substance: 1.4
Yeast gene YJL026W
  The level of expressed mRNA in the presence of chemical substance/The level of expressed mRNA in the absence of chemical substance: 1.1
Yeast gene YJR046W
  The level of expressed mRNA in the presence of chemical substance/The level of expressed mRNA in the absence of chemical substance: 2.4
Yeast gene YJR052W
  The level of expressed mRNA in the presence of chemical substance/The level of expressed mRNA in the absence of chemical substance: 2.3
Yeast gene YKL145W
  The level of expressed mRNA in the presence of chemical substance/The level of expressed mRNA in the absence of chemical substance: 2.7
Yeast gene YLR103C
  The level of expressed mRNA in the presence of chemical substance/The level of expressed mRNA in the absence of chemical substance: 0.5
Yeast gene YLR233C
  The level of expressed mRNA in the presence of chemical substance/The level of expressed mRNA in the absence of chemical substance: 0.5
Yeast gene YLR288C
  The level of expressed mRNA in the presence of chemical substance/The level of expressed mRNA in the absence of chemical substance: 1.3
Yeast gene YML032C
  The level of expressed mRNA in the presence of chemical substance/The level of expressed mRNA in the absence of chemical substance: 1.1
Yeast gene YML058W
  The level of expressed mRNA in the presence of chemical substance/The level of expressed mRNA in the absence of chemical substance: 1.2
Yeast gene YMR035W
  The level of expressed mRNA in the presence of chemical substance/The level of expressed mRNA in the absence of chemical substance: 1.6
Yeast gene YMR072W
  The level of expressed mRNA in the presence of chemical substance/The level of expressed mRNA in the absence of chemical substance: 1.2
Yeast gene YMR096W
  The level of expressed mRNA in the presence of chemical substance/The level of expressed mRNA in the absence of chemical substance: 3.7
Yeast gene YMR284W
  The level of expressed mRNA in the presence of chemical substance/The level of expressed mRNA in the absence of chemical substance: 1.8
Yeast gene YNL213C
  The level of expressed mRNA in the presence of chemical substance/The level of expressed mRNA in the absence of chemical substance: 1.5
Yeast gene YNL250W
  The level of expressed mRNA in the presence of chemical substance/The level of expressed mRNA in the absence of chemical substance: 2.3
Yeast gene YNL261W
  The level of expressed mRNA in the presence of chemical substance/The level of expressed mRNA in the absence of chemical substance: 1.5
Yeast gene YNL312W
  The level of expressed mRNA in the presence of chemical substance/The level of expressed mRNA in the absence of chemical substance: 2.5
Yeast gene YOL043C
  The level of expressed mRNA in the presence of chemical substance/The level of expressed mRNA in the absence of chemical substance: 1.8
Yeast gene YOR005C
  The level of expressed mRNA in the presence of chemical substance/The level of expressed mRNA in the absence of chemical substance: 1.5
Yeast gene YOR386W
  The level of expressed mRNA in the presence of chemical substance/The level of expressed mRNA in the absence of chemical substance: 3.0
Yeast gene YPL022W
  The level of expressed mRNA in the presence of chemical substance/The level of expressed mRNA in the absence of chemical substance: 1.6
Yeast gene YPL164C
  The level of expressed mRNA in the presence of chemical substance/The level of expressed mRNA in the absence of chemical substance: 2.0
Yeast gene YPL194W
  The level of expressed mRNA in the presence of chemical substance/The level of expressed mRNA in the absence of chemical substance: 3.1
Yeast gene YPR025C
  The level of expressed mRNA in the presence of chemical substance/The level of expressed mRNA in the absence of chemical substance: 1.7
